Experimental data taken from paper PMC9511441, “Semisynthetic teicoplanin derivatives with dual antimicrobial activity against SARS-CoV-2 and multiresistant bacteria” (Scientific Reports, 2022).
Values after ≈ are worked out from the molar mass of the structure shown. Read-outs that look alike come from different tables or passages of the source.

What was measured:
[1] = test system: HCoV-229E; assay: CPE reduction assay, HCoV-229E in HEL cells; format: cell-based; details: Human coronavirus 229E, MTS, mean of 2–3 tests
[2] = Cytotoxicity in mock-infected HEL cells (MTS); format: cell-based, human; details: human
[3] = biological target: T1, human recombinant cathepsin L (Homo sapiens, UniProt P07711); assay: biochemical; format: biochemical
T1 construct: made in house; host or cells: Escherichia coli
T1 sequence (P07711 114-333): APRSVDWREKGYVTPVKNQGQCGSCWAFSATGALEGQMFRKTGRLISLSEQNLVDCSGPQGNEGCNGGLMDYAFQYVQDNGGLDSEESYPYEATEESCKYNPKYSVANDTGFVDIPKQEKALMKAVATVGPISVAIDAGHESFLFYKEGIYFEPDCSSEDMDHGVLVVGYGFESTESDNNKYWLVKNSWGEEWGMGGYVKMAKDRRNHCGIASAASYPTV
Method: Cathepsin L inhibition was assessed as reported. Briefly, human recombinant cathepsin L was expressed in Escherichia coli[33]. Enzymatic activity was determined in 100 mM acetate buffer (pH 5.5) containing 0.1% PEG 8000, 5 mM cysteine and 1.5 mM EDTA. The enzyme was first activated in assay buffer for 5 min at 37 °C, after which it was added to the wells of a black microplate containing the Z-Phe-Arg-AMC substrate (Bachem) and compounds. Formation of the fluorescent cleavage product was monitored for 50 min at 37 °C, using a Tecan Infinit M1000 spectrofluorimeter set at 460 nm emission and 380 nm excitation wavelength. All assay mixtures contained 5% (v/v) DMSO and 0.01% Triton X-100 to prevent false-positive inhibition due to formation of compound aggregates. All measurements were performed in triplicate and repeated twice. The relative inhibition was calculated using the equation: Relative inhibition (%) = 100(1 − vi/vo), where vi and vo designate the reaction velocities in the presence and absence of inhibitor, respectively. IC50 values were determined from nine data points at different inhibitor concentrations.

[4] = test system: SARS-CoV-2; assay: microbe, parasite or virus in culture; format: cell-based; details: for EC50: Severe acute respiratory syndrome coronavirus 2, Vero C1008, 72 h, Vero E6 cells, three days, XTT, read-out: EC50, CPE reduction, SARS-CoV-2 in Vero E6 cells
[5] = test system: Escherichia coli ATCC 25218; assay: MIC against Gram-negative strain; details: ATCC25218
[6] = test system: Acinetobacter baumannii ATCC BAA1605; assay: MIC against Gram-negative strain; details: Acinetobacter baumannii, ATCCBAA1605
[7] = test system: Pseudomonas aeruginosa ATCC 27853; assay: MIC against Gram-negative strain; details: ATCC27853
[8] = Cytotoxicity in mock-infected VeroE6 cells (XTT); format: cell-based, African green monkey; details: African green monkey
[9] = test system: Klebsiella pneumoniae ST258 clone K 160/09; assay: MIC against Gram-negative strain; details: Klebsiella pneumoniae
[10] = test system: SARS-CoV-2; assay: microbe, parasite or virus in culture; format: cell-based; details: Severe acute respiratory syndrome coronavirus 2, 72 h; Calu-3 cells, three days, XTT; read-out: EC50, CPE reduction, SARS-CoV-2 in Calu-3 cells
[11] = in vitro; details: human
[12] = test system: S.pyogenes; assay: MIC, broth microdilution; format: cell-based; details: Streptococcus pyogenes
Source text: (§1) We determined the minimal inhibitory concentrations (MIC) of the teicoplanin conjugates for a large panel of Gram-positive bacterial strains, using vancomycin, unmodified teicoplanin, dalbavancin and oritavancin as reference compounds. […] The bacterial strains (see Suppl. Table S5 for all details) were selected to achieve maximum diversity of multidrug-resistance and include strains with known mechanisms of resistance to glycopeptides in clinical use. The S. epidermidis and S. haemolyticus strains resistant to dalbavancin and oritavancin were obtained in vitro from clinical isolates sensitive to the glycopeptide antibiotics.

[13] = test system: E. faecalis; assay: MIC, broth microdilution; format: cell-based; details: Enterococcus faecalis
Source text: as §1

[14] = test system: S. haemolyticus; assay: MIC, broth microdilution; format: cell-based; details: Staphylococcus haemolyticus
Source text: as §1

[15] = test system: S. aureus; assay: MIC, broth microdilution; format: cell-based; details: Staphylococcus aureus
Source text: as §1

[16] = test system: S. aureus ATCC29213; assay: Fluorescent competition assay, release of fluorescent vancomycin; details: cells saturated with FL-VAN, Fig. 7 left panel
[17] = test system: S. epidermidis; assay: microbe, parasite or virus in culture; format: cell-based; details: Staphylococcus epidermidis
Source text: as §1

[18] = test system: E. faecium; assay: microbe, parasite or virus in culture; format: cell-based; details: Enterococcus faecium
Source text: as §1

## N#C[C@@]1(c2ccc3c(N)ncnn23)O[C@H](CO)[C@@H](O)[C@H]1O [GS-441524, reference compound]
[1]
  EC50: 3 µM
[2]
  CC50 at 5 days: > 40 µM

## N=C(N)NCCSCCCOc1cc(C(=O)OCc2ccccc2)cc(OCCCSCCNC(=N)N)c1OCCCSCCNC(=N)N [Compound 24]
[3]
  IC50: 18 ± 1 µM
[4]
  EC50: > 100 µM
[4]; VeroE6 cells
  Reduction of the CPE of SARS-CoV-2 in VeroE6 cells (in words): not active
[5]
  MIC: 3.2 µg/mL (≈ 4.34 µM)
[6]
  MIC: 25.6 µg/mL (≈ 34.7 µM)
[7]
  MIC: 25.6 µg/mL (≈ 34.7 µM)
[8]
  CC50 at 3 days: 33.2 µM
[9]
  MIC: 128 µg/mL (≈ 173 µM)

## CCC(CC)COC(=O)[C@H](C)N[P@](=O)(OC[C@H]1O[C@@](C#N)(c2ccc3c(N)ncnn23)[C@H](O)[C@@H]1O)Oc1ccccc1 [Remdesivir, remdesivir, reference compound]
[4]
  EC50: 2.5 ± 0.2 µM
[10]
  EC50: 0.3 ± 0.03 µM
[8]; mock-infected Vero E6 cells, three days, XTT
  CC50: > 100 µM
[11]
  CC50: > 50 µM

## CN[C@H](CC(C)C)C(=O)N[C@H]1C(=O)N[C@@H](CC(N)=O)C(=O)N[C@H]2C(=O)N[C@H]3C(=O)N[C@H](C(=O)N[C@H](C(=O)O)c4cc(O)cc(O)c4-c4cc3ccc4O)[C@H](O[C@H]3C[C@](C)(N)[C@@H](O)[C@H](C)O3)c3ccc(c(Cl)c3)Oc3cc2cc(c3O[C@@H]2O[C@H](CO)[C@@H](O)[C@H](O)[C@H]2O[C@H]2C[C@](C)(NCc3ccc(-c4ccc(Cl)cc4)cc3)[C@@H](O)[C@H](C)O2)Oc2ccc(cc2Cl)[C@H]1O [ORI, oritavancin, reference compound]
[12]; read-out: MIC value, S.pyogenes H232
  MIC: 0.125 µg/mL (≈ 0.0697 µM)
[12]; read-out: MIC value, S.pyogenes H550
  MIC: 0.0625 µg/mL (≈ 0.0349 µM)
[12]; read-out: MIC value, S.pyogenes H578
  MIC: 0.0625 µg/mL (≈ 0.0349 µM)
[13]; read-out: Average MIC value, E. faecalis VAN^R,TEI^R/VanA, 1 strain
  MIC: 0.125 µg/mL (≈ 0.0697 µM)
[13]; read-out: Average MIC value, E. faecalis VAN^S, TEI^S, 2 strains
  MIC: 0.0625 µg/mL (≈ 0.0349 µM)
[13]; read-out: MIC value, E.faecalis JH2-2
  MIC: 0.0625 µg/mL (≈ 0.0349 µM)
[13]; read-out: MIC value, E.faecalis OG1RF
  MIC: 0.0625 µg/mL (≈ 0.0349 µM)
[13]; read-out: MIC value, E.faecalis V583, VAN,TEI/VanA
  MIC: 0.125 µg/mL (≈ 0.0697 µM)
[14]; S. haemolyticus mecA, 6 strains, read-out: Average MIC value
  MIC: 0.24 µg/mL (≈ 0.134 µM)
[14]; S.haemolyticus DALB_R1, mecA, read-out: MIC value
  MIC: 0.25 µg/mL (≈ 0.139 µM)
[14]; S.haemolyticus DALB_R2, mecA, read-out: MIC value
  MIC: 0.25 µg/mL (≈ 0.139 µM)
[14]; S.haemolyticus DALB_R3, mecA, read-out: MIC value
  MIC: 0.25 µg/mL (≈ 0.139 µM)
[14]; S.haemolyticus DALB_R4, mecA, read-out: MIC value
  MIC: 0.0625 µg/mL (≈ 0.0349 µM)
[14]; S.haemolyticus DALB_R5, mecA, read-out: MIC value
  MIC: 0.125 µg/mL (≈ 0.0697 µM)
[14]; S.haemolyticus ORI_R1, mecA, read-out: MIC value
  MIC: 0.5 µg/mL (≈ 0.279 µM)
[15]; ATCC 29213 / MSSA, read-out: MIC value, S. aureus ATCC29213, MSSA
  MIC: 0.125 µg/mL (≈ 0.0697 µM)
[15]; MRSA / USA300, read-out: MIC value, S. aureus USA300, CA-MRSA
  MIC: 0.0625 µg/mL (≈ 0.0349 µM)
[15]; MRSA, read-out: Average MIC value, S. aureus CA-MRSA, 1 strain
  MIC: 0.0625 µg/mL (≈ 0.0349 µM)
[15]; MRSA, read-out: Average MIC value, S. aureus MRSA, 7 strains
  MIC: 0.14 µg/mL (≈ 0.0781 µM)
[15]; MRSA, read-out: MIC value, S. aureus 73OL, MRSA
  MIC: 0.125 µg/mL (≈ 0.0697 µM)
[15]; MRSA, read-out: MIC value, S. aureus 214OL, MRSA
  MIC: 0.125 µg/mL (≈ 0.0697 µM)
[15]; MRSA, read-out: MIC value, S. aureus 1041OL, MRSA
  MIC: 0.125 µg/mL (≈ 0.0697 µM)
[15]; MRSA, read-out: MIC value, S. aureus A6918, MRSA
  MIC: 0.125 µg/mL (≈ 0.0697 µM)
[15]; MRSA, read-out: MIC value, S. aureus A6919, MRSA
  MIC: 0.125 µg/mL (≈ 0.0697 µM)
[15]; MRSA, read-out: MIC value, S. aureus Mu50, MRSA
  MIC: 0.25 µg/mL (≈ 0.139 µM)
[15]; MRSA, read-out: MIC value, S. aureus N315, MRSA
  MIC: 0.125 µg/mL (≈ 0.0697 µM)
[15]; MSSA / NEWMAN, read-out: MIC value, S. aureus Newman, MSSA
  MIC: 0.0625 µg/mL (≈ 0.0349 µM)
[15]; MSSA, read-out: Average MIC value, S. aureus MSSA, 4 strains
  MIC: 0.078 µg/mL (≈ 0.0435 µM)
[15]; MSSA, read-out: MIC value, S. aureus MSSA476, MSSA
  MIC: 0.0625 µg/mL (≈ 0.0349 µM)
[15]; MSSA, read-out: MIC value, S. aureus SA564, MSSA
  MIC: 0.0625 µg/mL (≈ 0.0349 µM)
[16]
  Outcompeting fluorescent vancomycin from S. aureus (in words): less pronounced
[17]; read-out: Average MIC value, S. epidermidis mecA, 6 strains
  MIC: 1.2 µg/mL (≈ 0.669 µM)
[17]; read-out: MIC value, S.epidermidis ORI_R1, mecA
  MIC: 4 µg/mL (≈ 2.23 µM)
[17]; read-out: MIC value, S.epidermidis ORI_R2, mecA
  MIC: 0.5 µg/mL (≈ 0.279 µM)
[17]; read-out: MIC value, S.epidermidis ORI_R3, mecA
  MIC: 2 µg/mL (≈ 1.12 µM)
[17]; read-out: MIC value, S.epidermidis ORI_R4, mecA
  MIC: 0.5 µg/mL (≈ 0.279 µM)
[17]; read-out: MIC value, S.epidermidis TEI_R1, mecA
  MIC: 0.125 µg/mL (≈ 0.0697 µM)
[17]; read-out: MIC value, S.epidermidis TEI_R2, mecA
  MIC: 0.125 µg/mL (≈ 0.0697 µM)
[18]; read-out: Average MIC value, E. faecium VAN^R,TEI^R/VanA, 8 strains
  MIC: 0.12 µg/mL (≈ 0.0669 µM)
[18]; read-out: Average MIC value, E. faecium VAN^S, TEI^S, 1 strain
  MIC: 0.0625 µg/mL (≈ 0.0349 µM)
[18]; read-out: MIC value, E.faecium E335, VAN,TEI,LNZ/VanA
  MIC: 0.125 µg/mL (≈ 0.0697 µM)
[18]; read-out: MIC value, E.faecium E355, VAN,TEI,LNZ/VanA
  MIC: 0.0625 µg/mL (≈ 0.0349 µM)
[18]; read-out: MIC value, E.faecium E832, VAN,TEI,LNZ/VanA
  MIC: 0.125 µg/mL (≈ 0.0697 µM)
[18]; read-out: MIC value, E.faecium E854, VAN,TEI,LNZ/VanA
  MIC: 0.0625 µg/mL (≈ 0.0349 µM)
[18]; read-out: MIC value, E.faecium E859, VAN,TEI,LNZ/VanA
  MIC: 0.0625 µg/mL (≈ 0.0349 µM)
[18]; read-out: MIC value, E.faecium E1114, VAN,TEI,LNZ/VanA
  MIC: 0.25 µg/mL (≈ 0.139 µM)
[18]; read-out: MIC value, E.faecium E1131, VAN,TEI,LNZ/VanA
  MIC: 0.125 µg/mL (≈ 0.0697 µM)
[18]; read-out: MIC value, E.faecium E1132, VAN,TEI,LNZ/VanA
  MIC: 0.125 µg/mL (≈ 0.0697 µM)
[18]; read-out: MIC value, E.faecium TX0016
  MIC: 0.0625 µg/mL (≈ 0.0349 µM)
